Where “and” joins values, the source holds several entries; their conditions need not be identical. Identical values can stand only once. Like-named read-outs stand apart in the source and are kept apart here.
Experiments:
[1] = target: T1, hNav1.4-L443C/A444W Na+ channels (Homo sapiens, UniProt P35499, A444W/L443C); assay: Whole-cell patch clamp of hNav1.4-L443C/A444W mutant Na+ channels in stably transfected HEK293 cells; assay type: cell-based
T1 construct: full-length hNav1.4 cDNA inserted in the pRc/CMV vector; expressed in transfected cells; pRc/CMV vector
T1 sequence (P35499 whole entry L443C/A444W): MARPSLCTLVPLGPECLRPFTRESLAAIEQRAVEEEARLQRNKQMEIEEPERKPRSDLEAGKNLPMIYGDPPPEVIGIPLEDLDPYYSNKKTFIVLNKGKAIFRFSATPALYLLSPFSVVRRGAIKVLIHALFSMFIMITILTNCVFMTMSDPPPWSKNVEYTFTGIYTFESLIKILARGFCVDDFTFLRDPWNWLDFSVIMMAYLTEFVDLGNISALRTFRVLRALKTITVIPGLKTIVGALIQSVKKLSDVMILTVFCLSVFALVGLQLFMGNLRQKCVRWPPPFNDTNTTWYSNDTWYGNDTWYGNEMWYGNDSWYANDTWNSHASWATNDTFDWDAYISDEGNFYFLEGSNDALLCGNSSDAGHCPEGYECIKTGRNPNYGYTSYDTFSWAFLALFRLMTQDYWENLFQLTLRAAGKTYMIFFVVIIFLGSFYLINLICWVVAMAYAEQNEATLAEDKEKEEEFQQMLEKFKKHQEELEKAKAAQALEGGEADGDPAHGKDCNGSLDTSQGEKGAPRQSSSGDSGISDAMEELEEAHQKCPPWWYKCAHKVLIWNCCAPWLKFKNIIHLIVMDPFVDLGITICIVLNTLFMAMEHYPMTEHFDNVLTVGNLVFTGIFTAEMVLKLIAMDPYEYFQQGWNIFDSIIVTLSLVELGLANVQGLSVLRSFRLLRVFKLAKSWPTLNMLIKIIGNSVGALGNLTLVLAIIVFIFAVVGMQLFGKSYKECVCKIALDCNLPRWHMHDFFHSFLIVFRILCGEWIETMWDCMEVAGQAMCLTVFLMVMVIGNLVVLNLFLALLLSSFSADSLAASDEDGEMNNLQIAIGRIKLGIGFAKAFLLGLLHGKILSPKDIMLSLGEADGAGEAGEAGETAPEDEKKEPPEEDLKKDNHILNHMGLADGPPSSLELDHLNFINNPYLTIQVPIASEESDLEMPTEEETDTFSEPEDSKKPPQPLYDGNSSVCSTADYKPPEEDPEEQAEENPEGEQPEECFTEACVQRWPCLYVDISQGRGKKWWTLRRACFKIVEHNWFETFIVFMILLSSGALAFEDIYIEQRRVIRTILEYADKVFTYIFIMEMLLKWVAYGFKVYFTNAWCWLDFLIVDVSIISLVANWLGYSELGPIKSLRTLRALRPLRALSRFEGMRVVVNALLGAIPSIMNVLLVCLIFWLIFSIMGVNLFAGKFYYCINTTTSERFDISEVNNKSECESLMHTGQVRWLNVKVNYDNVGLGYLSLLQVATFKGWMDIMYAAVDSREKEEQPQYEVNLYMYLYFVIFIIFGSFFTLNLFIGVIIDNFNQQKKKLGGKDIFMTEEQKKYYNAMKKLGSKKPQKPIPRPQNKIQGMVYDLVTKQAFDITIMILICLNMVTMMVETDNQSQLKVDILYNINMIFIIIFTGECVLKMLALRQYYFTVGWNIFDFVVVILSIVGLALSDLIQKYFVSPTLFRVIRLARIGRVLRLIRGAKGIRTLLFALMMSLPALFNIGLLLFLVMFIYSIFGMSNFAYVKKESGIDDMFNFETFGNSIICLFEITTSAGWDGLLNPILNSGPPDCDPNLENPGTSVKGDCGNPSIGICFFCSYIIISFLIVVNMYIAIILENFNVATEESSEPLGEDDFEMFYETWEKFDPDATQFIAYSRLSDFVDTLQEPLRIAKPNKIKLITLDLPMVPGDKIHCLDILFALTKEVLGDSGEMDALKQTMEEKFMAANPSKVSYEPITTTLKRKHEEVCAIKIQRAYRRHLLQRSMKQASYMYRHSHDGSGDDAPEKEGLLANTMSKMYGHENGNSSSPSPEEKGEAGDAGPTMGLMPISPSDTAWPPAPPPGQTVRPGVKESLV

[2] = as antiarrhythmic agent; cited from earlier work
IFM/QQQ mutant channels = conditions: cited from earlier work
[3] = system: pronase-treated Na+ channels; conditions: cited from earlier work
[4] = target: T2, rNav1.4 Na+ channels (wild-type) (Rattus norvegicus, UniProt P15390); assay: Whole-cell patch clamp of wild-type rNav1.4 Na+ currents in transfected HEK293t cells; assay type: cell-based; design: time constant of recovery from inactivated block / block of peak Na+ currents (resting state): dose or concentration left out as unconfirmed; conditions: for time for full recovery from flecainide block (dissociation): holding potential −140 mV, block developed after channel activation
T2 construct: expressed in transfected cells; host or cells: HEK293t, transient, calcium phosphate; pcDNA1/Amp vector
T2 sequence (P15390 whole entry): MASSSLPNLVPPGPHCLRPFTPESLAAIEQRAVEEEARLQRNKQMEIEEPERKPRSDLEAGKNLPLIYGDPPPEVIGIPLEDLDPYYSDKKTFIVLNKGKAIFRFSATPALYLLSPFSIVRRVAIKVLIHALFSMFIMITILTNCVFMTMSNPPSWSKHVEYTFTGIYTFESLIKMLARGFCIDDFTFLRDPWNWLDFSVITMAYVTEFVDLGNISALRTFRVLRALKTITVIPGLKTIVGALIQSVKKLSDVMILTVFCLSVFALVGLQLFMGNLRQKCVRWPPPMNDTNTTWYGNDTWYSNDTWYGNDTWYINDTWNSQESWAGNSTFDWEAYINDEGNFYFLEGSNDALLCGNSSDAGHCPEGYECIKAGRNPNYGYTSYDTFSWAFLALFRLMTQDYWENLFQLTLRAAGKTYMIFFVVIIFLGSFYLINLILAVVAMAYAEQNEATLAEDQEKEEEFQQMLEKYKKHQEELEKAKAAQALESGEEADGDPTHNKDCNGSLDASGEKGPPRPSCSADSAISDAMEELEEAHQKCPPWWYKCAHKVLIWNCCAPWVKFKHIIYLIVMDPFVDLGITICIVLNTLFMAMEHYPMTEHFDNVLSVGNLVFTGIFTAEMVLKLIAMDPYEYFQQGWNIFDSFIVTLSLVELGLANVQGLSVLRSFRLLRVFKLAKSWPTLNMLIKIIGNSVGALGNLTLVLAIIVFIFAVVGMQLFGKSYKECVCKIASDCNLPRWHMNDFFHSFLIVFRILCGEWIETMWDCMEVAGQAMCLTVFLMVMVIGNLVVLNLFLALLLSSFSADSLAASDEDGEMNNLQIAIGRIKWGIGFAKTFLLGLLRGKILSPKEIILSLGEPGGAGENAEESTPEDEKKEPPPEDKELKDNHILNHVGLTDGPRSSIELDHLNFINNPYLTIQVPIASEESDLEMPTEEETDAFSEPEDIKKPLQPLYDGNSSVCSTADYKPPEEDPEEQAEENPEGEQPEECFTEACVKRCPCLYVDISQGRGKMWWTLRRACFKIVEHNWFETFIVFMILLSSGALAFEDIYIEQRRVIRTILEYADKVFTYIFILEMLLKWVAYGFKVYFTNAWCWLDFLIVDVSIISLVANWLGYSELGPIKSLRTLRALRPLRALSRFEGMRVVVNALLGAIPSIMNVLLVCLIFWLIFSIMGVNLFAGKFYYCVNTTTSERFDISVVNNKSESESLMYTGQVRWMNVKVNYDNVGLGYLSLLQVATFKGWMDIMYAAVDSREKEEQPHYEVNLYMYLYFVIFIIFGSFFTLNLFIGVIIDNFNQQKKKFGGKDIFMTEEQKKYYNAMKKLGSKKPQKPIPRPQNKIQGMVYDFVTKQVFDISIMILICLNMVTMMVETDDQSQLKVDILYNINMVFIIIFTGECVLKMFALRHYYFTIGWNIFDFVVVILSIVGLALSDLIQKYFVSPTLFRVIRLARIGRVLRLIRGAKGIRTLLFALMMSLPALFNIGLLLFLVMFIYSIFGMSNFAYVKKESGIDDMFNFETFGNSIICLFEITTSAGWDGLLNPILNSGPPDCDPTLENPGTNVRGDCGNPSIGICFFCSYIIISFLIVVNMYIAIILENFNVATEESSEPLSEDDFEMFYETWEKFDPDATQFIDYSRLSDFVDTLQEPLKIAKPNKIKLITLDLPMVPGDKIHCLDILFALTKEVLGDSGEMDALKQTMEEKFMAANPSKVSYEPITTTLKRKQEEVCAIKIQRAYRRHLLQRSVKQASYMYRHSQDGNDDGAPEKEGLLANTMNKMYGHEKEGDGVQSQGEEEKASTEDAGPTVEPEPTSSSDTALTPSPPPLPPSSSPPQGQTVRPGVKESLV
T2 sequence (Q00954 19-218 partner): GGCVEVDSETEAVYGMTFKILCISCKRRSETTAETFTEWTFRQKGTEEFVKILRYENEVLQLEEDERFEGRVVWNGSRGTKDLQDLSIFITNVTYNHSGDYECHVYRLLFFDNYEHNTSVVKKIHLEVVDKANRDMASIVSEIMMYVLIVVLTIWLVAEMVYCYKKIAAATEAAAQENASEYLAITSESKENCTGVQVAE

[5] = target: T3, rNav1.4-L435W/L437C/A438W mutant channels (Rattus norvegicus, UniProt P15390, A438W/L435W/L437C); assay: Whole-cell patch clamp of inactivation-deficient rNav1.4-L435W/L437C/A438W mutant channels in HEK293t cells; assay type: cell-based
T3 construct: expressed in transfected cells; host or cells: HEK293t, transient, calcium phosphate; pcDNA1/Amp vector
T3 sequence (P15390 whole entry L435W/L437C/A438W): as the sequence (P15390 whole entry) above, with L435W, L437C, A438W counted along it
T3 sequence (Q00954 19-218 partner): as the sequence (Q00954 19-218 partner) above

[6] = 10 μM, external, 100-ms test pulse at +50 mV
[7] = 30 μM flecainide, 10 s conditioning prepulses -180 to -10 mV, test +30 mV

## batrachotoxin [BTX]
[1]; 5 μM BTX in pipette solution
  activation threshold of BTX-modified Na+ currents: −80 mV
  effect on fast and slow inactivation: completely eliminates the fast and the slow inactivation
[1]; 5 μM BTX in pipette solution, after 400 repetitive pulses at +50 mV, 1 Hz
  shift of activation threshold: ~−40 mV

## Cc1cccc(C)c1OCC(C)N (stereo not drawn) [mexiletine]
[2]
  therapeutic plasma concentration: 2.8 to 11.2 µM
[1]; [6]
  block of persistent late Na+ currents: strong block

## CCCCc1oc2ccccc2c1C(=O)c1cc(I)c(OCCN(CC)CC)c(I)c1 [amiodarone]
[1]
  block of persistent late Na+ currents: Most, if not all, persistent late currents were inhibited
  inhibition of peak Na+ currents: also reduced slowly, but again to a lesser extent
  time to steady-state block of late Na+ currents (wash-in): 15 min
  wash-out of block: slow and incomplete

## CCCNC[C@H](O)COc1ccccc1C(=O)CCc1ccccc1.Cl [(S)-propafenone, (S)-Propafenone-HCl]
[1]; 10 μM, external
  inhibition of peak Na+ currents: also inhibited, but to a lesser extent
[1]; [6]
  block of persistent late Na+ currents: potently blocks

## CC(C)N(CCC(C(N)=O)(c1ccccc1)c1ccccn1)C(C)C (stereo not drawn) [disopyramide]
IFM/QQQ mutant channels
  open-channel block in IFM/QQQ mutant channels: weak open-channel block

## CC[N+](CC)(CC)CC(=O)Nc1c(C)cccc1C [QX-314]
[3]
  block of inactivation-deficient Na+ currents: does not block

## O=C(NCC1CCCCN1)c1cc(OCC(F)(F)F)ccc1OCC(F)(F)F (stereo not drawn) [flecainide]
[4]
  IC50: ~400 µM
  time constant of recovery from inactivated block: > 100 s
  time for full recovery from flecainide block (dissociation): ≥ 1,000 s
[4]; [7]
  V0.5 of Boltzmann fit, voltage dependence of flecainide block: −57.3±2.7 mV
  kE (slope factor) of Boltzmann fit, voltage dependence of flecainide block: 17.6±2.1 mV
[4]; 30 mM flecainide, +50 mV pulses at 30-s interval
  time for flecainide block to reach steady state: 5 to 7 min
[4]; HEK-293T, read-out: peak currents inhibited after flecainide block reached steady state
  inhibition at 30000 µM: ~50%
[4]; at −50 mV
  time constant of development of the inactivated block: 10.9 ± 1.3 s
[4]; cell not stimulated repetitively in 1,000 s
  block of peak Na+ currents (resting state): ~20%
[4]; listed as Flecainide
  time for full recovery from flecainide block (dissociation): up to 10,000 s
[4]; repetitive pulses at 5 Hz for 60 pulses
  additional use-dependent block: ~50%
[4]; −20 mV vs −140 mV conditioning
  difference between the high and low flecainide affinities: less than 3 fold
[5]; 140 ms test pulse to +30 mV every 30 seconds, 0.1 to 30 μM
  time to steady state block at each concentration: ≤ 5 min
[5]; at +50 mV, 0.1 to 30 μM flecainide
  block of the maintained Na+ currents: strong time-dependent block
[5]; at −140 mV
  time constant of recovery from the open channel block: 11.2 s
[5]; conditioning pulse −50 mV, 10 s, read-out: IC50 with a conditioning pulse at −50 mV for 10 s (estimated block at the peak current)
  IC50: 4.1 ± 0.1 µM
[5]; from off-rate/on-rate, read-out: calculated dissociation constant (open channel)
  Kd: 0.81 µM
[5]; inactivation-deficient mutant channels
  difference of resting and open channel affinities: ~500 fold
[5]; open channel, read-out: IC50 for the open block (estimated block at the end of the pulse)
  IC50: 0.61 ± 0.07 µM
[5]; resting channel, holding −140 mV, read-out: IC50 for the resting block (estimated block at the peak current)
  IC50: 208 µM and 307 µM
[5]; test pulse +30 mV, slope of 1/τ vs concentration
  on-rate constant with the open channel: 1.49e+07 M⁻¹ s⁻¹
[5]; test pulse +30 mV, y-intercept of 1/τ vs concentration
  off-rate constant with the open channel: 12.2 s⁻¹
IFM/QQQ mutant channels
  open-channel block in IFM/QQQ mutant channels: weak open-channel block
[1]; [6]
  block of persistent late Na+ currents: strong block

## NC1=N[C@H](O)[C@H]2[C@H]3O[C@]4(O)O[C@@H]([C@@H](O)[C@@]2(N1)[C@@H]4O)[C@]3(O)CO [TTX, Tetrodotoxin]
[1]
  Hill coefficient: 1.09±0.04
  time-dependent block by TTX: no evidence of a time-dependent block
